Data: PubChem BioAssay (NCI)
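Results reflect a 48-hour exposure of cells in 96-well plates to compound at five concentrations. GI50 is the concentration that inhibits growth by half. TGI denotes the concentration required for complete inhibition of growth.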

Legend:
Assay in all cases: DTP human tumour cell line panel, 48 h
SW-620 colon = test system: SW-620 colon
NCI-H460 lung = test system: NCI-H460 lung
SK-MEL-28 melanoma = test system: SK-MEL-28 melanoma
UO-31 renal = test system: UO-31 renal
DU-145 prostate = test system: DU-145 prostate
SF-295 CNS = test system: SF-295 CNS
SK-OV-3 ovarian = test system: SK-OV-3 ovarian
U251 CNS = test system: U251 CNS
SK-MEL-5 melanoma = test system: SK-MEL-5 melanoma
CAKI-1 renal = test system: CAKI-1 renal
SNB-19 CNS = test system: SNB-19 CNS
LOX IMVI melanoma = test system: LOX IMVI melanoma
NCI-H23 lung = test system: NCI-H23 lung
CCRF-CEM leukemia = test system: CCRF-CEM leukemia
MCF7 breast = test system: MCF7 breast
IGROV1 ovarian = test system: IGROV1 ovarian
SF-539 CNS = test system: SF-539 CNS
NCI-H522 lung = test system: NCI-H522 lung
SNB-75 CNS = test system: SNB-75 CNS
A549 NSCLC = test system: A549 NSCLC
MALME-3M melanoma = test system: MALME-3M melanoma
NCI/ADR-RES ovarian = test system: NCI/ADR-RES ovarian
A498 renal = test system: A498 renal
HCT-116 colon = test system: HCT-116 colon
MOLT-4 leukemia = test system: MOLT-4 leukemia
MDA-MB-435 = test system: MDA-MB-435
RXF 393 renal = test system: RXF 393 renal
OVCAR-4 ovarian = test system: OVCAR-4 ovarian
RPMI-8226 leukemia = test system: RPMI-8226 leukemia
OVCAR-8 ovarian = test system: OVCAR-8 ovarian
PC-3 prostate = test system: PC-3 prostate
COLO 205 colon = test system: COLO 205 colon
MDA-MB-231 breast = test system: MDA-MB-231 breast
HT29 colon = test system: HT29 colon
NCI-H226 lung = test system: NCI-H226 lung
BT-549 breast = test system: BT-549 breast
K-562 leukemia = test system: K-562 leukemia
OVCAR-3 ovarian = test system: OVCAR-3 ovarian
KM12 colon = test system: KM12 colon
HL-60(TB) leukemia = test system: HL-60(TB) leukemia
786-0 renal = test system: 786-0 renal
SF-268 CNS = test system: SF-268 CNS
HCC-2998 colon = test system: HCC-2998 colon
SR leukemia = test system: SR leukemia
HS 578T breast = test system: HS 578T breast
TK-10 renal = test system: TK-10 renal
HOP-62 NSCLC = test system: HOP-62 NSCLC
OVCAR-5 ovarian = test system: OVCAR-5 ovarian
UACC-62 melanoma = test system: UACC-62 melanoma
T-47D breast = test system: T-47D breast
SK-MEL-2 melanoma = test system: SK-MEL-2 melanoma
ACHN renal = test system: ACHN renal
HCT-15 colon = test system: HCT-15 colon
SN12C renal = test system: SN12C renal
UACC-257 melanoma = test system: UACC-257 melanoma
HOP-92 NSCLC = test system: HOP-92 NSCLC

## Brc1ccc(Nc2nc3ccccc3nc2Nc2ccc(Br)cc2)cc1
SW-620 colon
  GI50: 2780 nM
  TGI: 10500 nM
NCI-H460 lung
  GI50: 390 nM
  TGI: 2560 nM
SK-MEL-28 melanoma
  GI50: 2180 nM
  TGI: 6870 nM
UO-31 renal
  GI50: 1830 nM
  TGI: 6300 nM
DU-145 prostate
  GI50: 644 nM
  TGI: 12400 nM
SF-295 CNS
  GI50: 1440 nM
  TGI: 4220 nM
SK-OV-3 ovarian
  GI50: 2140 nM
  TGI: 7690 nM
U251 CNS
  GI50: 429 nM
  TGI: 2220 nM
SK-MEL-5 melanoma
  GI50: 1560 nM
  TGI: 3110 nM
CAKI-1 renal
  GI50: 714 nM
  TGI: 6610 nM
SNB-19 CNS
  GI50: 591 nM
  TGI: 12200 nM
LOX IMVI melanoma
  GI50: 1720 nM
  TGI: 3310 nM
NCI-H23 lung
  GI50: 1320 nM
  TGI: 6520 nM
CCRF-CEM leukemia
  GI50: 1010 nM
  TGI: 10700 nM
MCF7 breast
  GI50: 527 nM
  TGI: 5410 nM
IGROV1 ovarian
  GI50: 1430 nM
  TGI: 13500 nM
SF-539 CNS
  GI50: 1510 nM
  TGI: 3560 nM
NCI-H522 lung
  GI50: 449 nM
  TGI: 3250 nM
SNB-75 CNS
  GI50: 1900 nM
  TGI: 7040 nM
A549 NSCLC
  GI50: 393 nM
  TGI: 11000 nM
MALME-3M melanoma
  GI50: 1980 nM
  TGI: 4950 nM
NCI/ADR-RES ovarian
  GI50: 1620 nM
  TGI: 10500 nM
A498 renal
  GI50: 51.3 nM
  TGI: 2750 nM
HCT-116 colon
  GI50: 418 nM
  TGI: 1650 nM
MOLT-4 leukemia
  GI50: 1150 nM
  TGI: 9450 nM
MDA-MB-435
  GI50: 1510 nM
  TGI: 4900 nM
RXF 393 renal
  GI50: 1490 nM
  TGI: 6380 nM
OVCAR-4 ovarian
  GI50: 1250 nM
  TGI: 8980 nM
RPMI-8226 leukemia
  GI50: 756 nM
  TGI: 5870 nM
OVCAR-8 ovarian
  GI50: 773 nM
  TGI: 10800 nM
PC-3 prostate
  GI50: 637 nM
  TGI: 10400 nM
COLO 205 colon
  GI50: 1840 nM
  TGI: 3350 nM
MDA-MB-231 breast
  GI50: 1460 nM
  TGI: 3010 nM
HT29 colon
  GI50: 404 nM
  TGI: 10900 nM
NCI-H226 lung
  GI50: 2750 nM
  TGI: 10100 nM
BT-549 breast
  GI50: 2440 nM
  TGI: 7980 nM
K-562 leukemia
  GI50: 786 nM
  TGI: 11600 nM
OVCAR-3 ovarian
  GI50: 401 nM
  TGI: 1540 nM
KM12 colon
  GI50: 1400 nM
  TGI: 8960 nM
HL-60(TB) leukemia
  GI50: 2090 nM
  TGI: 5960 nM
786-0 renal
  GI50: 1730 nM
  TGI: 5900 nM
SF-268 CNS
  GI50: 1690 nM
  TGI: 13300 nM
HCC-2998 colon
  GI50: 1660 nM
  TGI: 7700 nM
SR leukemia
  GI50: 715 nM
  TGI: 5520 nM
HS 578T breast
  GI50: 2900 nM
  TGI: 9050 nM
TK-10 renal
  GI50: 1810 nM
  TGI: 6600 nM
HOP-62 NSCLC
  GI50: 1430 nM
  TGI: 4120 nM
OVCAR-5 ovarian
  GI50: 1030 nM
  TGI: 5150 nM
UACC-62 melanoma
  GI50: 1940 nM
  TGI: 5370 nM
T-47D breast
  GI50: 936 nM
  TGI: 7090 nM
SK-MEL-2 melanoma
  GI50: 2260 nM
  TGI: 5480 nM
ACHN renal
  GI50: 583 nM
  TGI: 3220 nM
HCT-15 colon
  GI50: 507 nM
  TGI: 3210 nM
SN12C renal
  GI50: 2160 nM
  TGI: 6500 nM
UACC-257 melanoma
  GI50: 2010 nM
  TGI: 5900 nM
HOP-92 NSCLC
  GI50: 2190 nM
  TGI: 5500 nM
